Test results published in patent US10851109B2, “Compositions and methods of using the same for treatment of neurodegenerative and mitochondrial disease” (Mitokinin, Inc., priority 2014, dated 2020).

Legend:
ND2 mutant flies = test: Mechanical stress-induced (bang sensitive) paralysis test in ND2 mutant flies; format: in vivo, Drosophila; settings: ND2 mutant flies treated throughout life with 10 μM of drug; tested after aging 15 days
Excerpt: Mutations affecting mitochondrial complex I, a multi-subunit assembly that couples electron transfer to proton pumping, are the most frequent cause of heritable mitochondrial diseases. Here, a Drosophila model of complex I deficiency caused by a homoplasmic mutation in the mitochondrial-encoded NADH dehydrogenase subunit 2 (ND2) gene is used. […] This ND2 mutant model was used in “bang sensitivity” behavioral analysis to show the effects of kinetin treatment.
All Drosophila strains were maintained on standard cornmeal/molasses medium at 25° C. with a 12-hour lightdark cycle. The ND2de11 and ND2ins1 stock was obtained from the laboratory of Dr. Patrick O'Farrell (University of California, San Francisco) (Xu et al., 2008). The isogenic w1118 stock was obtained from the Bloomington Drosophila Stock Center at Indiana University. […]
Drosophila strains with mutations affecting mitochondrial function often show an analogous seizure-like paralytic phenotype caused by mechanical-stress, termed “bang sensitivity” (Celotto et al., 2011; Fergestad et al., 2006; Ganetzky and Wu, 1982). […] Briefly, flies were vortexed for 10 seconds in inverted glass vials containing cotton stoppers, and the time required for each individual animal to right itself was recorded. […]
Unless otherwise stated statistical significance tests were calculated using an unpaired two-tailed Student's t-test.

[1] = tested on: mouse primary dopaminergic neuron culture; test: Survival of TH positive dopaminergic neurons in primary mesencephalic culture injured by MPP+; format: cell-based; settings: for TH neuron survival against MPP+, % of cell survival / dopaminergic (TH positive) neuron survival, percentage of control / decrease of TH positive neurons: MPP+ 4 μM for 48 h
Excerpt: Parkinson's disease (PD) is the second most common neurodegenerative disorder in the United States. The predominant motor symptoms of PD including slow movement, resting tremor, rigidity, and gait disturbance, are caused by the loss of dopaminergic neurons in the substantia nigra (SN). Although the aetiology of PD remains unknown, both genetic and environmental factors appear to play a role (Paisan-Ruiz et al., 2004; Vila & Przedborski, 2004). The neurotoxicant 1-methyl-4-phenyl-1, 2, 3, 6-tetrahydropyridine (MPTP) is a specific dopaminergic neuronal toxin. MPTP is converted to 1-methyl-4-phenyl pyridinium (MPP+) by astroglia and then causes specific dopaminergic neuronal death in the SN, thus leading to the clinical symptoms of PD in humans, primates and mice (Uhl et al., 1985). For this reason, MPTP-induced dopaminergic neurotoxicity in mice is widely used as a model for PD research. It has been largely reported that MPP+ causes neurodegeneration of dopaminergic neurones in vitro and provides a useful model of Parkinson's disease in vitro. […] This study investigated the neuroprotective effect of Mitokinin test compound (kinetin) in function on time of pre-incubation and concentration on mouse primary mesencephalic cultures injured by exposure to 1-methyl-4-phenylpyridinium (MPP+), a Parkinson' disease model in vitro. BDNF at 10 ng/ml will be used as a positive control in this study.
Mouse dopaminergic neurons are cultured as described by Schinelli et al., 1988 and Viswanath et al., 2001. Briefly pregnant female mouse of 14 days gestation are killed by cervical dislocation (Mouse C57Bl/6; Janvier Labs) and the foetuses are removed from the uterus. The embryonic midbrains are removed and placed in ice-cold medium of Leibovitz (L15; PanBiotech; ref: PO4-27055, batch: 4290114) containing 2% of Penicillin-Streptomycin (PS; PanBiotech; ref: P06-07100; batch: 4810114) and 1% of bovine serum albumin (BSA; PanBiotech; Ref: P06-1391100, batch: K030913). Only the ventral portions of the mesencephalic flexure are used for the cell preparations as this is the region of the developing brain rich in dopaminergic neurons. The midbrains are dissociated by trypsinisation for 20 min at 37° C. (Trypsin EDTA IX; PanBiotech Ref: P10-023100; batch: 1681013). The reaction is stopped by the addition of Dulbecco's modified Eagle's medium (DMEM; PanBiotech Ref PO4-03600; batch: 9710913) containing DNAase I grade II (0.1 mg/ml; Panbiotech, ref: P60-37780100; batch: H130919) and 10% of foetal calf serum (FCS; Invitrogen; ref: 10270-098; batch: 41Q4120K). Cells are then mechanically dissociated by 3 passages through a 10 ml pipette. Cells are then centrifuged at 180×g for 10 min at 4° C. temperature on a layer of BSA (3.5%) in L15 medium. The supernatant is discarded and the cells of pellet is re-suspended in a defined culture medium consisting of Neurobasal (Invitrogen, ref: 21103; batch: 1556347) supplemented with B27 (2%; Invitrogen; ref: 17504; batch: 1446691), L-glutamine (2 mM; PanBiotech; ref: PO4-80100; batch: 6620314) and 2% of PS solution. Viable cells are counted in a Neubauer cytometer using the trypan blue exclusion test. The cells are seeded at a density of 70 000 cells/well in 96 well-plates (wells are pre-coated with poly-L-lysine (Greiner)) and are cultured at 37° C. in a humidified air (95%)/CO2 (5%) atmosphere. Half of the medium are changed every 2 days with fresh medium. In these conditions, after 5 days of culture, astrocytes are present in the culture and release growth factor allowing neurons differentiation. Five to six percents of the neuronal cell population are dopaminergic neurons.
Briefly, on day 5 of culture, the medium was removed and fresh medium was added, without or with kinetin (Sigma ref 48130) at 100 μM, 50 μM, 25 μM and with and without BDNF 10 ng/ml for 2 days, 6 days or 10 days. […]

SH-SYSY cells = test: Modulation of PINK1: Caspase-Glo caspase 3/7 cleavage after MG-132 in SH-SYSY cells; format: cell-based; settings: then 25 uM MG-132 for 16 hours, % of kinetin's caspase cleavage values; for Run1 Compound (avg as % kinetin): Run1, compound 96 hours; for Run2 Compound (avg as % kinetin): Run2, compound 96 hours; for Run3 Compound (avg as % kinetin): Run3, compound 96 hours
Method: We grew SH-SYSY cells in 1:1 mix of DMEM and F12 supplemented with 10% FBS and Pen/Strep (1×) antibiotics on 96 well plates (˜5,000 cells/well) at 37 degrees Celsius in 90 ul per well. We added 10 ul of 10× mix of the compounds identified below in a DMSO and medium mix to the cells. (min. 2 wells per compound per plate), allowed it to incubate for 96 hours at 37 degrees Celsius, then added 25 uM MG-132 for 16 hours (a proteasome inhibitor that triggers apoptosis; this toxicity is known to be opposed by PINK1). Following incubation with MG-132 we added 100 ul of Promega Caspase-Glo® reagent directly to each well to lyse cells and provide a luminescent Caspase 3/7 substrate peptide to quantify caspase cleavage activity. All of the values in Table 2 are presented as a % of kinetin's caspase cleavage values (kinentin was run as a positive control in parallel to the analogs of kinetin shown below).

Nc1ncnc2nc[nH]c12 [Adenine]
mean time necessary for recovery (to right itself) after 10 seconds vortexing (ND2 mutant flies): approximately 9 seconds

c1coc(CNc2ncnc3nc[nH]c23)c1 [Kinetin, kinetin]
TH neuron survival against MPP+, % of cell survival ([1]; Kinetin 25 μM pre-incubated 10 days): 76%
dopaminergic (TH positive) neuron survival, percentage of control ([1]; Kinetin 100 μM pre-incubated 2 days): 70%
dopaminergic (TH positive) neuron survival, percentage of control ([1]; Kinetin 100 μM pre-incubated 6 days): 72%
toxicity on dopaminergic neurons on long incubation ([1]; Kinetin 100 μM pre-incubated 10 days): toxic
TH neuron survival against MPP+, % of cell survival ([1]; Kinetin 5004 pre-incubated 10 days): 84%
mean time necessary for recovery (to right itself) after 10 seconds vortexing (ND2 mutant flies): 0.5 s

C[n+]1ccc(-c2ccccc2)cc1 [MPP^+, 1-methyl-4-phenylpyridinium]
decrease of TH positive neurons ([1]; 2 days pre-incubation series (FIG. 1)): ~50%
decrease of TH positive neurons ([1]; 6 days pre-incubation series (FIG. 2)): ~54%
decrease of TH positive neurons ([1]; 10 days pre-incubation series (FIG. 3)): ~47%

c1coc(CC2CNc3ncnc4ncn2c34)c1 (stereo not shown) [MTK- 48, 7-(furan-2-ylmethyl)-8,9-dihydro-7H-imidazo[4,5,1-de]pteridine]
Run1 Compound (avg as % kinetin) (SH-SYSY cells): 92%
Run2 Compound (avg as % kinetin) (SH-SYSY cells): 122%
Run3 Compound (avg as % kinetin) (SH-SYSY cells): 95%

c1coc(CNc2ncnc3[nH]ncc23)c1 [MTK- 51, N-(furan-2-ylmethyl)-1H-pyrazolo [3,4-d]pyrimidin-4-amine]
Run1 Compound (avg as % kinetin) (SH-SYSY cells): 80%
Run2 Compound (avg as % kinetin) (SH-SYSY cells): 92%

c1coc(CNc2ccnc3[nH]cnc23)c1 [MTK- 58, N-(furan-2-ylmethyl)-3H-imidazo[4,5-b]pyridin-7-amine]
Run1 Compound (avg as % kinetin) (SH-SYSY cells): 94%
Run2 Compound (avg as % kinetin) (SH-SYSY cells): 108%

c1coc(CNc2ccnc3[nH]ncc23)c1 [MTK- 59, N-(furan-2-ylmethyl)-1H-pyrazolo[3,4-b]pyridin-4-amine]
Run1 Compound (avg as % kinetin) (SH-SYSY cells): 72%
Run2 Compound (avg as % kinetin) (SH-SYSY cells): 108%

c1coc(CNc2nccc3[nH]ncc23)c1 [MTK- 62, N-(furan-2-ylmethyl)-1H-pyrazolo[4,3-c]pyridin-4-amine]
Run1 Compound (avg as % kinetin) (SH-SYSY cells): 88%
Run2 Compound (avg as % kinetin) (SH-SYSY cells): 132%

Cc1nc2c(NCc3ccco3)ncnc2[nH]1 [MTK- 64, N-(furan-2-ylmethyl)-8-methyl-9H-purin-6-amine]
Run1 Compound (avg as % kinetin) (SH-SYSY cells): 79%
Run2 Compound (avg as % kinetin) (SH-SYSY cells): 120%
Run3 Compound (avg as % kinetin) (SH-SYSY cells): 93%

Nc1nc(NCc2ccco2)c2nc[nH]c2n1 [MTK- 68, N-6-(furan-2-ylmethyl)-9H-purine-2,6-diamine]
Run1 Compound (avg as % kinetin) (SH-SYSY cells): 95%

B1: BDNF: brain derived neurotrophic factor, used at 10 ng/ml as positive control (protein, UniProt P23560 19-247, looked up)
Neurotrophic factor BDNF …: APMKEANIRGQGGLAYPGVRTHGTLESVNGPKAGSRGLTSLADTFEHVIEELLDEDQKVRPNEENNKDADLYTSRVMLSSQVPLEPPLLFLLEEYKNYLDAANMSMRVRRHSDPARRGELSVCDSISEWVTAADKKTAVDMSGGTVTVLEKVPVSKGQLKQYFYETKCNPMGYTKEGCRGIDKRHWNSQCRTTQSYVRALTMDSKKRIGWRFIRIDTSCVCTLTIKRGR
dopaminergic (TH positive) neuron survival, percentage of control ([1]; BDNF 10 ng/mL, 2 days pre-incubation series): 87%
dopaminergic (TH positive) neuron survival, percentage of control ([1]; BDNF 10 ng/mL, 6 days pre-incubation series): 84%
dopaminergic (TH positive) neuron survival, percentage of control ([1]; BDNF 10 ng/mL, 10 days pre-incubation series): 91%
